In test [1] the test system is mitochondrial membrane potential in HeLas. Description: Flow cytometry of mitochondrial membrane potential (JC-1 dye). In kind it is cell-based, human. The note with it: HeLa, 2 hours, 10 μM peptide or equivalent conjugate or polymer alone; versus no treatment. The method, then: Flow Cytometry Evaluation of Mitochondrial Membrane Potential. Loss of mitochondrial membrane potential, a known indicator for apoptosis, was assessed using the JC-1 dye. […] HeLas were incubated for 2 hours with 10 μM peptide or equivalent conjugate or polymer alone. JC-1 was added at a final concentration of 5 μg/mL and incubated for 15 minutes. Cells were washed 2 times with PBS, trypsinized, and resuspended in 0.5% BSA for flow cytometric analysis. Percent of cells displaying mitochondrial depolarization was quantified based on the number of green fluorescent cells that were negative for red fluorescence. Here, a significant loss of red fluorescent JC-1 aggregates and therefore a loss in mitochondrial polarization was detected following treatment with both the Antp-BH3 peptide and the polymer peptide conjugate (FIG. 21 A).
Background: Flow cytometry measures light scatter and fluorescence of single cells or particles in a stream.

For the next test, the system named is caspase 3/7. Description: Caspase 3/7 activity assay in HeLas. The format is cell-based, human. Conditions: HeLa, 30 minutes, 25 μM peptide or equivalent polymer; relative to no treatment. The procedure: Caspase 3/7 Activity Assay. Caspase 3/7 activation was measured using a commercially available assay kit. This assay utilizes a profluorescent caspase 3/7 substrate that once enzymatically cleaved becomes fluorescent allowing for determination of relative enzyme activity using a fluorescent plate reader. Here, HeLas were incubated for 30 minutes with 25 μM peptide (alone or as polymer conjugate) in addition to polymer alone in a quantity equivalent to the conjugate samples. Afterwards, a caspase 3/7 fluorigenic indicator was added directly to the culture media for each sample. Plates were shaken for 1 hour and then assayed using a fluorescent plate reader. Data were expressed as percent caspase activity relative to samples receiving no treatment.

As for “NH2-RQIKIWFQNRRMKWKKMGQVGRQLAIIGDDINRRYDSC-COOH (H-RQIKIWFQNRRMKWKKMGQVGRQLAIIGDDINRRYDSC-OH) [Antp-BH3]”, the “increase in percent of cells exhibiting loss of mitochondrial polarity” value in test [1] is “approximately 4 fold”. For the same substance, in the test with caspase 3/7, the “caspase 3/7 activation” value was “approximately 2.5 fold”.

The values are drawn from patent publication US9862792B2, “Diblock copolymers and polynucleotide complexes thereof for delivery into cells” (University of Washington, priority 2008, dated 2018).
